Laboratory results reported in ChEMBL document CHEMBL4304790, “Successful Strategies for Mitigation of a Preclinical Signal for Phototoxicity in a DGAT1 Inhibitor” (ACS Med Chem Lett, 2019).
Converted amounts (≈) assume the structure as drawn. Counter-ions that a name gives are not always drawn. Blank lines part the entries; values can stand above or below the molecule they belong to. The source made the active and inactive calls. No cut-off for these calls is given here.

Experiments:
[1] = Photo irritation factor, ratio of IC50 for cytotoxicity against BALB/c mouse 3T3 cells pretreated for 1 hr prior to 50 mins incubation in dark conditions followed by further incubation in DMEM medium for 20 to 22 hrs to IC50 for cytotoxicity against BALB/c mouse 3T3 cells pretreated for 1 hr prior to irradiation with UVA for 50 mins followed by further in DMEM medium incubation for 20 to 22 hrs …; assay type: cell-based; conditions: BALB/c 3T3 cells
[2] = target: T1, Diacylglycerol O-acyltransferase 1 (Homo sapiens, UniProt O75907); test: (§1) Inhibition of recombinant human his-tagged DGAT1 expressed in Sf9 insect cells using oleoyl-CoA and diolein as substrates incubated for 30 mins by LC/MS/MS analysis
T1 sequence (O75907 whole entry): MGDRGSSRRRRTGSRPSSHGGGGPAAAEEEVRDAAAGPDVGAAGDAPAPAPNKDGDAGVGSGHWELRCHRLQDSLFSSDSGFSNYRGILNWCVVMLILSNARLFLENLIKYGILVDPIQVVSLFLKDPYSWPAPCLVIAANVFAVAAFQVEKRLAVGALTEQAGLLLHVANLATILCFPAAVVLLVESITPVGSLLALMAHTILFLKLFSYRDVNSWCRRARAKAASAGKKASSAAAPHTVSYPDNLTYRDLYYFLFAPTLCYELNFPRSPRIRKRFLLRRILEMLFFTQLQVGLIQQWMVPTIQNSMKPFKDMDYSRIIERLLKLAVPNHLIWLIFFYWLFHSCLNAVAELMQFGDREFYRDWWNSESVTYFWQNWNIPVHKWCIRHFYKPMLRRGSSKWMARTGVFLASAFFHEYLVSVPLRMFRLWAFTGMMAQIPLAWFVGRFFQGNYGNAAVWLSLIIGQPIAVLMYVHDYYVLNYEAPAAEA

[3] = Half life in Sprague-Dawley rat at 1 mg/kg, iv measured upto 24 hrs; assay type: ADME, organism-based; conditions: in vivo
[4] = Volume of distribution in Sprague-Dawley rat at 1 mg/kg, iv measured upto 24 hrs; assay type: ADME, organism-based; conditions: in vivo
[5] = Clearance in Sprague-Dawley rat at 1 mg/kg, iv measured upto 24 hrs; assay type: ADME, organism-based; conditions: in vivo
[6] = Lipophilicity, log D of the compound at pH 7.4; assay type: physicochemical; conditions: buffer
[7] = Solubility of compound at pH 6.8; assay type: physicochemical; conditions: buffer
[8] = Dissociation constant, pKa of compound; assay type: physicochemical
[9] = Permeability across apical to basolateral side in human Caco2 cells; assay type: ADME, cell-based; conditions: Caco-2, read-out: permeability
[10] = Permeability across basolateral to apical side in human Caco2 cells; assay type: ADME, cell-based; conditions: Caco-2, read-out: permeability
[11] = Efflux ratio of permeability across basolateral to apical side over apical to basolateral side in human Caco2 cells; assay type: ADME, cell-based; conditions: Caco-2
[12] = Protein binding in rat plasma; assay type: ADME, cell-free; conditions: read-out: PPB (converted)
[13] = AUC (0 to 24 hrs) in Sprague-Dawley rat at 1 mg/kg, iv measured upto 24 hrs; assay type: ADME, organism-based; set-up: dose 1 mg/kg, time < 24 hr, route intravenous; conditions: in vivo
[14] = target: T2, Diacylglycerol O-acyltransferase 1 (Mus musculus, UniProt Q9Z2A7); test: (§2) Inhibition of DGAT1 in mouse C2C12 cells assessed as reduction in intracellular triglyceride production incubated for 2 hrs in presence of BSA-complexed oleate by LC/MS/MS analysis; assay type: cell-based
T2 sequence (Q9Z2A7 whole entry): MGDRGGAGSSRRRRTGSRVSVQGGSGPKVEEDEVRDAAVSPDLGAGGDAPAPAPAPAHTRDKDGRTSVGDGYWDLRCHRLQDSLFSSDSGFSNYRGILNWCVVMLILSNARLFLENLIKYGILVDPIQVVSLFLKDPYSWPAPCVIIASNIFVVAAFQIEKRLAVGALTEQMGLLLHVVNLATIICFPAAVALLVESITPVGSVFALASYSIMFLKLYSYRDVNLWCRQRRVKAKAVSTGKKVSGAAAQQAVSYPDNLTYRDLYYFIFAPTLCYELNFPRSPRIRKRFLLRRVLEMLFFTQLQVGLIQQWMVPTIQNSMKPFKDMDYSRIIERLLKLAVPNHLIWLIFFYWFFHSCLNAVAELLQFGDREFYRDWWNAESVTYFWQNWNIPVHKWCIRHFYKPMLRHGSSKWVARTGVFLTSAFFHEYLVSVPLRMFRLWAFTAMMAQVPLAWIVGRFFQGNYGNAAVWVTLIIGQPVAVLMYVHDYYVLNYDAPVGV

Rattus norvegicus [15] = test: Antihyperlipidemic activity in Sprague-Dawley rat lipid bolus model assessed as reduction in plasma triglyceride excursion at 5 mg/kg, po administered via gavage 4 hrs prior to lipid challenge and measured upto 8 hrs post compound dose by GPO-Trinder method relative to control; assay type: functional
[16] = AUC (0 to 24 hrs) in Sprague-Dawley rat at 5 mg/kg, po measured upto 24 hrs; assay type: ADME, organism-based; set-up: dose 5 mg/kg, time < 24 hr, route oral; conditions: in vivo
[17] = Cmax in Sprague-Dawley rat at 5 mg/kg, po measured upto 24 hrs; assay type: ADME, organism-based; set-up: dose 5 mg/kg, route oral; conditions: in vivo
[18] = Tmax in Sprague-Dawley rat at 5 mg/kg, po measured upto 24 hrs; assay type: ADME, organism-based; conditions: in vivo
[19] = Oral bioavailability in Sprague-Dawley rat at 5 mg/kg measured upto 24 hrs; assay type: ADME, organism-based; conditions: in vivo
[20] = Half life in po dosed human plasma administered as single dose; assay type: ADME, organism-based
[21] = Toxicity in preclinical models assessed as GI tolerability
[22] = target: T3, Diacylglycerol O-acyltransferase 1 (Homo sapiens) (UniProt O75907); test: as §1
T3 sequence (whole entry): T1 sequence (O75907 whole entry)

[23] = target: T4, Diacylglycerol O-acyltransferase 1 (Mus musculus) (UniProt Q9Z2A7); test: as §2; assay type: cell-based
T4 sequence (whole entry): T2 sequence (Q9Z2A7 whole entry)

[24] = Half life in Sprague-Dawley rat at 0.5 mg/kg, iv measured upto 24 hrs; assay type: ADME, organism-based; conditions: in vivo
[25] = Volume of distribution in Sprague-Dawley rat at 0.5 mg/kg, iv measured upto 24 hrs; assay type: ADME, organism-based; conditions: in vivo
[26] = Clearance in Sprague-Dawley rat at 0.5 mg/kg, iv measured upto 24 hrs; assay type: ADME, organism-based; conditions: in vivo
[27] = AUC (0 to 24 hrs) in Sprague-Dawley rat at 0.5 mg/kg, iv measured upto 24 hrs; assay type: ADME, organism-based; set-up: time < 24 hr, dose 0.5 mg/kg, route intravenous; conditions: in vivo
[28] = Drug uptake in plasma of Sprague-Dawley rat lipid bolus model at 5 mg/kg, po administered via gavage 4 hrs prior to lipid challenge and measured upto 8 hrs post compound dose by LC-MS/MS analysis; assay type: ADME, organism-based; conditions: in vivo
[29] = AUC (0 to 24 hrs) in Sprague-Dawley rat at 1.5 mg/kg, po measured upto 24 hrs; assay type: ADME, organism-based; set-up: time < 24 hr, dose 1.5 mg/kg, route oral; conditions: in vivo
[30] = Cmax in Sprague-Dawley rat at 1.5 mg/kg, po measured upto 24 hrs; assay type: ADME, organism-based; set-up: dose 1.5 mg/kg, route oral; conditions: in vivo
[31] = Tmax in Sprague-Dawley rat at 1.5 mg/kg, po measured upto 24 hrs; assay type: ADME, organism-based; conditions: in vivo
[32] = Oral bioavailability in Sprague-Dawley rat at 1.5 mg/kg measured upto 24 hrs; assay type: ADME, organism-based; conditions: in vivo
Rattus norvegicus [33] = species: Rattus norvegicus; conditions: Sprague-Dawley, 5 mg/kg

SMILES: O=C(O)C[C@H]1CC[C@H](c2ccc(-c3ccc(Nc4ccc(C(F)(F)F)nc4)cn3)cc2)CC1
selectivity ratio [1]: 56 | IC50 [2]: 55 nM | half-life [3]: 5.1 h | Vd [4]: 0.1 L/kg | clearance [5]: 1 mL/min/kg | logD [6]: 3.6 | solubility [7]: < 5 µM | pKa [8]: 4.1 | Papp A→B [9]: 8.1 ×10⁻⁶ cm/s | Papp B→A [10]: 2.3 ×10⁻⁶ cm/s | efflux ratio [11]: 0.28 | fraction unbound [12]: 0.003 | AUC(0-t) at 24 h [13]: 46 µM·h | EC50 [14]: 71 nM | inhibition in vivo at 5 mg/kg (Rattus norvegicus [15]): 50 to 70% | AUC(0-t) at 24 h [16]: 190 µM·h | Cmax [17]: 42 µM | Tmax [18]: 0.7 h | bioavailability [19]: 83% | half-life [20]: 125 h | Activity [21]: Non-Toxic

SMILES: CN(C)CCCN1c2ccccc2Sc2ccc(Cl)cc21 [CHLORPROMAZINE HYDROCHLORIDE]
selectivity ratio [1]: > 6

SMILES: CC(C)(C)c1nnc(Nc2ccc(-c3ccc([C@H]4CC[C@H](CC(=O)O)CC4)cc3)nc2)o1
inhibition [22]: Active | inhibition [23]: Active

SMILES: COc1ccc2nc(Nc3ccc(-c4ccc([C@H]5CC[C@H](CC(=O)O)CC5)cc4)nc3)oc2c1
selectivity ratio [1]: 17

SMILES: O=C(O)C[C@H]1CC[C@H](c2ccc(-c3ccc(Nc4nnc(C5CCC5)o4)cn3)cc2)CC1
logD [6]: 2.8 | EC50 [14]: 12 nM

SMILES: O=C(O)C[C@H]1CC[C@H](c2ccc(-c3ccc(Nc4nnc(C5CCC5)s4)cn3)cc2)CC1
EC50 [14]: 8 nM

The next lines start with results.

EC50 [14]: 8 nM
SMILES: CCc1nc(C)c(C(=O)Nc2ccc(-c3ccc([C@H]4CC[C@H](CC(=O)O)CC4)cc3)nc2)o1
selectivity ratio [1]: 1

half-life [24]: 20 h | Vd [25]: 0.3 L/kg | clearance [26]: 0.2 mL/min/kg | AUC(0-t) at 24 h [27]: 51.4 µM·h | solubility [7]: 13 µM (≈ 6.17 µg/mL) | Papp A→B [9]: 18.3 ×10⁻⁶ cm/s | Papp B→A [10]: 7.7 ×10⁻⁶ cm/s | fraction unbound [12]: < 0.01 | Drug uptake [28]: Active | AUC(0-t) at 24 h [29]: 180 µM·h | Cmax [30]: 28 µM | Tmax [31]: 3 h | bioavailability [32]: > 100%
SMILES: CCc1nc(C)c(C(=O)Nc2ccc(-c3ccc(C45CCC(CC(=O)O)(CC4)OC5)cc3)cc2)o1
inhibition (Rattus norvegicus [33]): Active | Activity [21]: Non-Toxic

logD [6]: 0.7 | pKa [8]: 3.8 | EC50 [14]: 2300 nM
SMILES: CC(C)c1nnc(Nc2ccc(-c3ccc(N4CCC(CC(=O)O)CC4)cc3)nc2)o1

logD [6]: 1.5 | pKa [8]: 3.9
SMILES: O=C(O)CC12CCC(c3ccc(-c4ccc(Nc5nnc(C6CCC6)o5)cn4)cc3)(CC1)CO2

EC50 [14]: 27 nM
SMILES: CCc1nnc(Nc2ccc(-c3ccc([C@H]4CC[C@H](CC(=O)O)CC4)cc3)nc2)o1

half-life [24]: 3.2 h | Vd [25]: 0.7 L/kg | clearance [26]: 3.5 mL/min/kg | AUC(0-t) at 24 h [27]: 5.16 µM·h | logD [6]: 2.4 | solubility [7]: < 5 µM | Papp A→B [9]: 5.9 ×10⁻⁶ cm/s | Papp B→A [10]: 11.8 ×10⁻⁶ cm/s | fraction unbound [12]: < 0.01 | Drug uptake [28]: Active | AUC(0-t) at 24 h [29]: 25.8 µM·h | Cmax [30]: 6.1 µM | Tmax [31]: 1 h | bioavailability [32]: > 100%
SMILES: O=C(O)CC12CCC(c3ccc(-c4ccc(Nc5nnc(C6CCC6)o5)cc4)cc3)(CC1)CO2
inhibition (Rattus norvegicus [33]): Active | Activity [21]: Non-Toxic

EC50 [14]: 206 nM
SMILES: Cc1nnc(Nc2ccc(-c3ccc([C@H]4CC[C@H](CC(=O)O)CC4)cc3)nc2)o1
